Results published in US10376577B2, “Refined product obtained from rice hull and preparation process and use thereof” (China Medical University, priority 2014, dated 2019).

Tested on: CT26 cells
Experiment: Synergistic anticancer effect of refined product and 5-FU on colon carcinoma cells
Type: in vivo, mouse
Conditions: BALB/c mice with subcutaneous CT26, end of 3rd week, treatments per Table 8, mean ± S.D.
Text: The male BALB/c mice were randomly divided into the following groups (n=8 for each group): a normal control group, a pathological control group, a 5-FU group, and a synergy group. 1×10^6 CT26 cells were subcutaneously injected into the leg of each mouse in the pathological control group, the 5-FU group, and the synergy group. The mice in the normal control group received no CT26 cells.
After the injection of CT26 cells, the mice in the 5-FU group, the synergy group, and the pathological control group were subjected to the treatments shown in Table 8 until the end of the 3rd week after the injection of CT26 cells. The mice in the normal control group received no treatment.
At the end of the 3rd week after the injection of CT26 cells, the mice in each group were anesthetized using CO2, and blood was collected from the celiac vein. The blood collected was subjected to total white blood cell counting using an automated hematology analyzer (Sysmex, KX-21 N). Besides, tumors were collected and weighted.

- Number of total white blood cells (pathological control 6.59 ± 1.46): 4.46 ± 0.77
SMILES: O=c1[nH]cc(F)c(=O)[nH]1 [5-FU, 5-fluorouracil]
- Tumor weight (pathological control 4.10 ± 0.92): 3.19 ± 1.47
